# Test results as given in publication PMC9144807, “Fluorine-18 Labeled Urea-Based Ligands Targeting Prostate-Specific Membrane Antigen (PSMA) with Increased Tumor and Decreased Renal Uptake” (Pharmaceuticals, 2022).
# Read-outs that look alike come from different tables or passages of the source.
# What was measured:
# [1] = tested on: PC3(+) xenografts; assay: In vivo biodistribution in PC3(+) xenograft mice; parameters: key to salivary gland T:M / Femur T:M / Blood T:M / Kidney T:M / Liver T:M: T:M = (%ID/g in tissue) / (%ID/g in muscle)
# Method: (§1) PC3(−) (wildtype human prostate cancer cell line, PSMA negative) and PC3(+) (transfected with human PSMA) were provided by Dr. Hisataka Kobayashi. Cell lines were grown at 37 °C in 5% CO2 in RPMI-1640 supplemented with 10% FBS, 2 mM L-glutamine and Pen/Strep/Amphotericin B. PC3(+) and PC3(−) cell suspensions [2 × 10^6 cells; PBS:Matrigel (70:30)] from in vitro cell culture were subcutaneously implanted (right shoulder) into athymic mice (Athymic NCr- nu/nu, Charles River Laboratory, 4 weeks old) for use as positive and negative controls, respectively, for in vitro or in vivo studies. When tumors reached the appropriate size (>100 mg) the xenograft mice were used for in vivo biodistributions and imaging studies or the tumors were excised and further processed to obtain membrane preparations for in vitro assays as described previously.
# (§2) Tumor-bearing mice (tumor weights: 0.1–0.8 g) were injected while awake via the tail vein with each of the tracers [0.74–3.7 MBq (20 to 100 µCi), 10 to 80 pmol] and euthanized (via CO2 inhalation) at selected times. […] Blood samples and tissues were excised from each animal, weighed, and radioactivity content was determined (Perkin Elmer 2480 Wizard3). Radioactivity content in the blood and each tissue was expressed as % injected dose per gram of tissue [%ID/g; (Formula (1))] and then normalized for body weight to a 20 g mouse (Formula (2)) from which Tissue:Muscle ratios [T:M; (Formula (3))] were determined as follows:(1) %ID/g =[counts per minute cpmtissue / tissue weight g]×100/cpmtotal injected dose
# (§3) %ID/g (normalized to a 20 g mouse) = (%ID/g) × (body weight/20 g)(2)
# (§4) (3) T:M=%ID/gtissue/%ID/gmuscle
# [2] = tested on: PC3(+) xenografts; assay: Blocking biodistribution study in PC3(+) xenografts, coinjection of non-radioactive DCFPyL; assay type: in vivo, mice; conditions: 60 min
# Method: as §2, §3, §4
# [3] = tested on: PC3(+) tumor xenograft mice; assay: Small animal PET imaging with ROI analysis, PC3(+) tumor xenograft mice; assay type: in vivo; conditions: 60 min post-injection
# Method: Tumor-bearing mice were anesthetized with isoflurane/O2 (1.5–3% v/v) and imaged at various times after intravenous injection of each tracer [2.6 to 3.7 MBq (70 to 100 µCi)]. Whole body static PET images were obtained at 2 bed positions (FOV = 2.0 cm, total imaging time: 10 min) using a BioPET scanner (Bioscan Inc., Washington, DC, USA). The images were reconstructed by a 3-dimensional ordered-subsets expectation maximum (3D-OSEM).
# [4] = tested on: PC3(−) xenografts; assay: In vivo biodistribution in PC3(−) xenograft mice (negative control); conditions: 60 min; for PC3(−) Tumor T:M: mean ± SE, n = 8–10
# Method: as §1, §2, §3, §4
# [5] = target: T1, PSMA (Homo sapiens, UniProt Q04609); assay: In vitro saturation binding assay with PC3(+) tumor membrane preparations
# T1 construct: expressed in transfected cells; host or cells: PC3(+) (PC3 human prostate cancer cells transfected with human PSMA), grown as xenograft tumors in athymic mice; tumor membrane preparations
# Method: as §1
# In vitro saturation studies were performed to determine binding affinities (Kd) and PSMA expression levels (Bmax) using tumor membrane preparations from PC3(−) and PC3(+) PSMA xenografts (human prostate cancer cell line transfected with human PSMA; PC3(+)). […] Filter papers were collected, and the radioactive content was quantified by gamma counting (PerkinElmer 2480 Wizard3). […] Aliquots of each membrane preparation were taken for the determination of the protein concentration (Bradford method).
# [6] = Fraction of intact tracer (parent) in blood and kidney by TLC; assay type: in vivo, mice; conditions: for %Parent compound in blood (TLC analysis): 60 min, mean ± SD, n = 2–5; for tissue uptake at 1 h: 60 min post-injection; for tissue uptake at 2 h: 120 min post-injection
# Text: In some cases, additional blood samples and/or tissue samples after gamma counting were taken for determining the fraction of intact radiolabeled tracer (parent) using thin-layer chromatography (TLC). For these TLC determinations: tissues were placed in equal volumes of acetonitrile and homogenized, or serum was obtained from the blood samples and mixed with an equal volume of acetonitrile. Following centrifugation of the samples, supernatants were collected and the radioactive content of the supernatants and pellets were determined. The supernatants were then applied to thin-layer chromatography (TLC) plates. The TLC plates were developed [solvent system: ethyl acetate (80%), methanol (10%) and acetic acid (10%)], and exposed on a phosphorimaging plate which was scanned the next day.
# [7] = target: T1, PSMA; assay: In vitro competition binding assay with [18F]DCFPyL as radioligand, PC3(+) tumor membrane preparations
# [8] = 15 min post-injection, mean ± SE
# [9] = 30 min post-injection, mean ± SE
# [10] = 60 min post-injection, mean ± SE
# [11] = 120 min post-injection, mean ± SE
# [12] = mouse, blood, intravenous, mean ± SE, read-out: Blood uptake, parent (corrected for metabolites)
# [13] = mouse, kidney, intravenous, mean ± SE, read-out: Kidney uptake, parent (corrected for metabolites)
# T1 sequence (Q04609 whole entry): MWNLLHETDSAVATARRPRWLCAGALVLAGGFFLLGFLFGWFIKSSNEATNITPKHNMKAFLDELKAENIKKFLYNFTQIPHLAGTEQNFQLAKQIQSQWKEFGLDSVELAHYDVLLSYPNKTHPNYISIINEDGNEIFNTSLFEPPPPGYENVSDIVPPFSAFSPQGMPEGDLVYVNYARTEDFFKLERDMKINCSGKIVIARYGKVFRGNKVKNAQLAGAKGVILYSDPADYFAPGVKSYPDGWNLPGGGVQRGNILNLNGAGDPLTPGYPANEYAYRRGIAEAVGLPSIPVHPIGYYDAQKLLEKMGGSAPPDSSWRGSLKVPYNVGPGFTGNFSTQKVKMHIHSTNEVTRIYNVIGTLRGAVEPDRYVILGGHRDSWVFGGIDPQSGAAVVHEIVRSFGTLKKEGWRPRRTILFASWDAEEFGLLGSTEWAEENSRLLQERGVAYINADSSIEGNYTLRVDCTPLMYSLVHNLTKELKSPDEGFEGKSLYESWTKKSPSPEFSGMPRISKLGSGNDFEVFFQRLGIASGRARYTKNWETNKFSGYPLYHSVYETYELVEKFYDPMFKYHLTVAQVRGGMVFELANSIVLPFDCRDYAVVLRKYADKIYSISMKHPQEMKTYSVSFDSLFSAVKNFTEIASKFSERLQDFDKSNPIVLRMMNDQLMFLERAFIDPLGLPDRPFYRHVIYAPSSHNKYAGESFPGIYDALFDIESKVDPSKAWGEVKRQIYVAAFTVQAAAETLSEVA
structure (smiles),measurement,setting,value
"O=C(O)CCC(NC(=O)NC(CCCCNC(=O)c1ccc([18F])nc1)C(=O)O)C(=O)O (stereo not shown) [[^18F]DCFPyL, 2-(3-(1-carboxy-5-[(6-[^18F]fluoropyridine-3-carbonyl)-amino]-pentyl)-ureido)-pentanedioic acid, reference compound]",PC3(+) tumor uptake,[1]; 15 min,18.6 %ID/g
same,salivary gland T:M,[1]; 15 min,2.7
same,"Blood uptake, total radioactivity",[1]; [8],2.66 ± 0.12 %ID/g
same,"Kidney uptake, total radioactivity",[1]; [8],132.9 ± 6.6 %ID/g
same,"Blood uptake, total radioactivity",[1]; [9],1.03 ± 0.05 %ID/g
same,"Kidney uptake, total radioactivity",[1]; [9],126.9 ± 5.6 %ID/g
same,PC3(+) tumor uptake,[1]; 60 min,25.6 %ID/g
same,Radioactivity in the blood,[1]; 60 min (Figure 5A),0.519 %ID/g
same,Blood T:M,"[1]; 60 min, mean ± SE, n = 8–10",2.29 ± 0.15
same,Femur T:M,"[1]; 60 min, mean ± SE, n = 8–10",0.90 ± 0.09
same,Kidney T:M,"[1]; 60 min, mean ± SE, n = 8–10",695.1 ± 76.0
same,Liver T:M,"[1]; 60 min, mean ± SE, n = 8–10",9.88 ± 7.4
same,PC3(+) Tumor T:M,"[1]; 60 min, mean ± SE, n = 8–10",124
same,"Blood uptake, total radioactivity",[1]; [10],0.52 ± 0.06 %ID/g
same,"Kidney uptake, total radioactivity",[1]; [10],147.7 ± 11.6 %ID/g
same,PC3(+) tumor uptake,[1]; 120 min,20.8 %ID/g
same,salivary gland T:M,[1]; 120 min,2.0
same,"Blood uptake, total radioactivity",[1]; [11],0.13 ± 0.01 %ID/g
same,"Kidney uptake, total radioactivity",[1]; [11],50.2 ± 3.6 %ID/g
same,Femur uptake,[1]; all times 15 to 120 min,< 1 %ID/g
same,Femur T:M,[1]; all times except 120 min,< 1.8
same,salivary gland radioactivity cleared,[1]; at 120 min,92%
same,decrease of kidney uptake from 15 to 120 min,"[1]; mouse, in vivo",65%
same,decrease of salivary gland T:M from 15 to 120 min,"[1]; mouse, in vivo",34%
same,increase in tumor T:M from 15 to 120 min,"[1]; mouse, in vivo",11 fold
same,increase of liver T:M in blocked group compared to tracer-only group,[2],2.7 fold
same,PC3(+) tumor T:M of the blocked group,[2]; coinjection of DCFPyL 1000×,50
same,decrease of PC3(+) tumor T:M in blocked group compared to non-blocked group,[2]; coinjection of DCFPyL 1000×,60%
same,decrease of kidney T:M in blocked group,[2]; coinjection of DCFPyL 1000×,96%
same,decrease of spleen T:M in blocked group,[2]; coinjection of DCFPyL 1000×,81%
same,liver T:M of the blocked group,[2]; coinjection of DCFPyL 1000×,27
same,reduction in blood and most tissue uptakes (%ID/g) compared to tracer-only group,[2]; coinjection of DCFPyL 1000×,> 50%
same,PC3(+) tumor T:M of the tracer-only group of the blocking study,[2]; no blocking dose,141
same,PC3(+) tumor uptake from ROI analysis of PET images,[3],19 %ID/g
same,kidney uptake from ROI analysis of PET images,[3],187 %ID/g
same,liver uptake from ROI analysis of PET images,[3],3 %ID/g
same,PC3(−) tumor uptake,[4],0.3 %ID/g
same,PC3(−) tumor uptake as fraction of uptake in PC3(+) tumors,[4],< 2%
same,PC3(−) Tumor T:M,[4],1.50 ± 0.17
same,Bmax (PSMA expression level),[5]; n = 5,13.95 ± 1.60 fmol/µg of protein
same,"Blood uptake, parent (corrected for metabolites)",[6]; [8],1.06 ± 0.05 %ID/g
same,"Kidney uptake, parent (corrected for metabolites)",[6]; [9],20.18 ± 0.72 %ID/g
same,%Parent compound in blood (TLC analysis),[6],49.9 ± 10.7%
same,tissue uptake at 0.5 h,"[6]; mouse, blood, intravenous, 30 min post-injection, mean ± SE, read-out: Blood uptake, parent (corrected for metabolites)",0.4 ± 0.02 %ID/g
same,tissue uptake at 1 h,[6]; [12],0.26 ± 0.02 %ID/g
same,tissue uptake at 2 h,[6]; [12],0.045 ± 0.003 %ID/g
same,tissue uptake at 0.25 h,"[6]; mouse, kidney, intravenous, 15 min post-injection, mean ± SE, read-out: Kidney uptake, parent (corrected for metabolites)",17.1 ± 0.84 %ID/g
same,tissue uptake at 1 h,[6]; [13],17.6 ± 1.48 %ID/g
same,tissue uptake at 2 h,[6]; [13],3.41 ± 0.46 %ID/g
same,% of parent in blood,"[6]; nude, mouse, in vivo",50-40
same,% of parent in kidney,"[6]; nude, mouse, in vivo",16-7
"O=C(O)CC[C@H](NC(=O)N[C@@H](CCCCNC(=O)CO/N=C\c1ccc([18F])cc1)C(=O)O)C(=O)O [[^18F]1a, reference compound]",Blood T:M,"[1]; 60 min, mean ± SE, n = 8–10",2.39 ± 0.14
same,Femur T:M,"[1]; 60 min, mean ± SE, n = 8–10",0.92 ± 0.09
same,Kidney T:M,"[1]; 60 min, mean ± SE, n = 8–10",507.8 ± 44.0
same,Liver T:M,"[1]; 60 min, mean ± SE, n = 8–10",35.7 ± 3.1
same,PC3(+) Tumor T:M,"[1]; 60 min, mean ± SE, n = 8–10",103.0 ± 10.9
same,PC3(−) Tumor T:M,[4],1.07 ± 0.08
same,Kd,"[5]; saturation assays, mean (SE), n = 3–5",0.238 nM
same,%Parent compound in blood (TLC analysis),[6],50.2 ± 1.4%
same,Ki,[7],0.1 nM
same,decrease in Ki compared to Ki of DCFPyL,[7]; p = 0.006,~ 4 fold
